Test results reported in ChEMBL document CHEMBL1136496, “Synthesis and evaluation of optically pure dioxolanes as inhibitors of hepatitis C virus RNA replication” (Bioorg Med Chem Lett, 2003).

System: Nucleic Acid
Assay: Concentration required to inhibit HCV RNA replication was determined
Assay type: functional, Hepacivirus hominis

Compound	EC50 [µM]
Nc1nc(O)c2ccn([C@H]3CO[C@@H](CO)O3)c2n1	> 50
Nc1ncnc2c1ccn2[C@@H]1CO[C@@H](CO)O1	> 50
C[C@H]1O[C@@H](CO)O[C@H]1n1ccc2c(N)ncnc21	> 50
C[C@H]1O[C@@H](CO)O[C@H]1n1ccc2c(O)nc(N)nc21	> 50
C[C@H]1O[C@@H](CO)O[C@@H]1n1ccc2c(N)ncnc21	> 50
Nc1ncnc2c1ccn2[C@H]1CO[C@@H](CO)O1	> 50
